In US20050239656A1, “Pyridine compounds or salts thereof and herbicides containing the same” (priority 2002, published 2005):

Assays:
barnyardgrass [1] = assay: Test Example 1: foliage treatment, upland pot test; type: in vivo, Echinochloa crus-galli L.; details: active ingredient 500 g/ha, observed 18th to 23rd day, 0 = non-treated, 100 = complete kill
How it was run: (§1)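 Crops and weeds were sown in upland soil pots and sprayed post-emergence at set leaf stages (soybean 0.1–0.4, wheat 1.3–2.4, rice 1.2–2.6, barnyardgrass 1.3–2.8). Formulated compound was applied in 500 L/ha water with 0.1% spreader. Growth control (0–100%) was rated visually 18–23 days later.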

crabgrass [2] = assay: Test Example 1: foliage treatment, upland pot test; type: in vivo, Digitaria sanguinalis L.; details: active ingredient 500 g/ha, observed 18th to 23rd day, 0 = non-treated, 100 = complete kill
green foxtail [3] = assay: Test Example 1: foliage treatment, upland pot test; type: in vivo, Setaria viridis L.; details: active ingredient 500 g/ha, observed 18th to 23rd day, 0 = non-treated, 100 = complete kill
redroot pigweed [4] = assay: Test Example 1: foliage treatment, upland pot test; type: in vivo, Amaranthus retroflexus L.; details: active ingredient 500 g/ha, observed 18th to 23rd day, 0 = non-treated, 100 = complete kill
prickly sida [5] = assay: Test Example 1: foliage treatment, upland pot test; type: in vivo, Sida spinosa L.; details: active ingredient 500 g/ha, observed 18th to 23rd day, 0 = non-treated, 100 = complete kill
velvetleaf [6] = assay: Test Example 1: foliage treatment, upland pot test; type: in vivo, Abutilon theophrasti MEDIC.; details: active ingredient 500 g/ha, observed 18th to 23rd day, 0 = non-treated, 100 = complete kill
rice [7] = assay: Test Example 1: foliage treatment, upland pot test; type: in vivo, Oryza sativa L.; details: crop, active ingredient 500 g/ha, observed 18th to 23rd day, 0 = non-treated, 100 = complete kill
How it was run: as §1

corn [8] = assay: Test Example 1: foliage treatment, upland pot test; type: in vivo, Zea mays L.; details: crop, active ingredient 500 g/ha, observed 18th to 23rd day, 0 = non-treated, 100 = complete kill
How it was run: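 Corn seeds were sown in upland field soil held in a 1/170,000 ha pot and grown to the 2.1 to 3.2 leaf stage. A wettable powder or emulsifiable concentrate of the test compound was diluted with water at 500 L/ha, given 0.1% (v/v) agricultural spreader, and sprayed onto the foliage with a small sprayer. Growth controlling degree (%) was scored visually 18th to 23rd days later, from 0 (non-treated) to 100 (complete kill).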

soybean [9] = assay: Test Example 1: foliage treatment, upland pot test; type: in vivo, Glycine max Merr.; details: crop, active ingredient 500 g/ha, observed 18th to 23rd day, 0 = non-treated, 100 = complete kill
How it was run: as §1

barnyardgrass [10] = assay: Test Example 2: soil surface treatment, upland pot test; type: in vivo, Echinochloa crus-galli L.; details: active ingredient 500 g/ha
How it was run: (§2)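 In this pre-emergence upland pot test, a small sprayer delivered the diluted compound formulation (1,500 L/ha water) to the soil surface the day after seeding. Plants were then observed, and control was scored from 0 to 100% some 20–28 days after treatment.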

crabgrass [11] = assay: as above; type: in vivo, Digitaria sanguinalis L.; details: active ingredient 500 g/ha
How it was run: as §2

green foxtail [12] = assay: as above; type: in vivo, Setaria viridis L.; details: active ingredient 500 g/ha
How it was run: as §2

redroot pigweed [13] = assay: as above; type: in vivo, Amaranthus retroflexus L.; details: active ingredient 500 g/ha
How it was run: as §2

prickly sida [14] = assay: as above; type: in vivo, Sida spinosa L.; details: active ingredient 500 g/ha
How it was run: as §2

velvetleaf [15] = assay: as above; type: in vivo, Abutilon theophrasti MEDIC.; details: active ingredient 500 g/ha
How it was run: as §2

rice [16] = assay: as above; type: in vivo, Oryza sativa L.; details: active ingredient 500 g/ha
How it was run: as §2

corn [17] = assay: as above; type: in vivo, Zea mays L.; details: active ingredient 500 g/ha
How it was run: as §2

soybean [18] = assay: as above; type: in vivo, Glycine max Merr.; details: active ingredient 500 g/ha
How it was run: as §2

barnyardgrass [19] = assay: Test Example 3: paddy pot test, application under submerged conditions; type: in vivo, Echinochloa crus-galli L.; details: submerged application at 0.5 leaf stage, visually observed 14 days after application, 0 = non-treated, 100 = complete kill
How it was run: (§3)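 Barnyardgrass and japanese bulrush sown in flooded paddy soil in greenhouse pots, japanese ribbon wapato tubers planted 1–2 days later; water depth kept at 3–4 cm. Diluted wettable powder or emulsifiable concentrate applied into water at 0.5-leaf or primary-leaf stage at set active-ingredient doses. Growth control scored visually at 14 days, 0 (untreated) to 100% (complete kill).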

japanese bulrush = assay: as above; type: in vivo, Scirpus juncoides; details: submerged application at 0.5 leaf stage, visually observed 14 days after application, 0 = non-treated, 100 = complete kill
How it was run: as §3

japanese ribbon wapato = assay: as above; type: in vivo, Sagittaria pygniaea; details: submerged application at primary leaf stage, visually observed 14 days after application, 0 = non-treated, 100 = complete kill
How it was run: as §3

rice (var. Nihonbare) = assay: Test Example 3: paddy pot test, transplanted rice; type: in vivo, Oryza sativa L.; details: applied 4th day after transplantation, visually observed 21st day after application, 0 = non-treated, 100 = complete kill
How it was run: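 Rice (var. Nihonbare) at 2 leaf stage transplanted 3 cm deep into puddled paddy soil under 3–4 cm flooding; on day 4 after transplanting, diluted wettable powder or emulsifiable concentrate applied by pipette under submerged conditions at a set active-ingredient dose. Growth scored visually 21 days after application, 0 (untreated) to 100 (complete kill) %.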

[20] = observed day 21, 0 = non-treated, 100 = complete kill

| SMILES | Growth controlling degree (%) Barnyardgrass (barnyardgrass [1]) [%] | Growth controlling degree (%) Crabgrass (crabgrass [2]) [%] | Growth controlling degree (%) Green foxtail (green foxtail [3]) [%] | Growth controlling degree (%) Redroot pigweed (redroot pigweed [4]) [%] | Growth controlling degree (%) Prickly sida (prickly sida [5]) [%] | Growth controlling degree (%) Velvetleaf (velvetleaf [6]) [%] | Growth controlling degree (%) Rice (rice [7]) [%] | Growth controlling degree (%) Corn (corn [8]) [%] | Growth controlling degree (%) Soybean (soybean [9]) [%] | Growth controlling degree (%) Barnyardgrass (barnyardgrass [10]; observed 20th to 28th day) [%] | Growth controlling degree (%) Crabgrass (crabgrass [11]; observed 20th to 28th day) [%] | Growth controlling degree (%) Green foxtail (green foxtail [12]; observed 20th to 28th day) [%] | Growth controlling degree (%) Redroot pigweed (redroot pigweed [13]; observed 20th to 28th day) [%] | Growth controlling degree (%) Prickly sida (prickly sida [14]; observed 20th to 28th day) [%] | Growth controlling degree (%) Velvetleaf (velvetleaf [15]; observed 20th to 28th day) [%] | Growth controlling degree (%) Rice (rice [16]; observed 20th to 28th day) [%] | Growth controlling degree (%) Corn (corn [17]; observed 20th to 28th day) [%] | Growth controlling degree (%) Soyabean (soybean [18]; observed 20th to 28th day) [%] | Growth controlling degree (%) Barnyardgrass (barnyardgrass [19]; active ingredient 250 g/ha) [%] | Growth controlling degree (%) Japanese bulrush (japanese bulrush; active ingredient 250 g/ha) [%] | also measured |
| --- | --- | --- | --- | --- | --- | --- | --- | --- | --- | --- | --- | --- | --- | --- | --- | --- | --- | --- | --- | --- | --- |
| CC(C)C(c1cnccc1C(F)(F)F)N(C)C(=O)CC1CCCC1 (centres unmarked) [I-165] | 80 | 95 | 70 | 70 | 80 | 80 | 10 | 40 | 80 | 100 | 100 | 100 | 80 | 70 | 50 | 10 | 20 | 20 | 98 | 98 | Growth controlling degree (%) Japanese ribbon wapato (japanese ribbon wapato; active ingredient 250 g/ha): 60%; Growth controlling degree (%) Rice (rice (var. Nihonbare); active ingredient 250 g/ha): 10% |
| CC(C)C(c1cnccc1C(F)(F)F)N(C)C(=O)C=Cc1ccc(Br)cc1 (centres unmarked) [I-178] | 50 | 60 | 60 | 70 | 95 | 95 | 40 | 10 | 60 | 90 | 98 | 100 | 40 | 30 | 40 | 40 | 10 | 0 | – | – | Growth controlling degree (%) Barnyardgrass (barnyardgrass [19]; active ingredient 500 g/ha): 98%; Growth controlling degree (%) Japanese bulrush (japanese bulrush; active ingredient 500 g/ha): 95%; Growth controlling degree (%) Japanese ribbon wapato (japanese ribbon wapato; active ingredient 500 g/ha): 40%; Growth controlling degree (%) Rice (rice (var. Nihonbare); active ingredient 500 g/ha): 0% |
| CC(C)C(c1cnccc1C(F)(F)F)N(C)C(=O)COc1ccccc1 (centres unmarked) [I-229] | 60 | 80 | 70 | 80 | 80 | 90 | 30 | 10 | 50 | 100 | 100 | 100 | 98 | 100 | 50 | 50 | 100 | 10 | – | – | Growth controlling degree (%) Barnyardgrass (barnyardgrass [19]; active ingredient 500 g/ha): 100%; Growth controlling degree (%) Japanese bulrush (japanese bulrush; active ingredient 500 g/ha): 95%; Growth controlling degree (%) Japanese ribbon wapato (japanese ribbon wapato; active ingredient 500 g/ha): 90%; Growth controlling degree (%) Rice (rice (var. Nihonbare); active ingredient 500 g/ha): 0% |
| CC(C)C(c1cnccc1C(F)(F)F)N(C)C(=O)Cc1cccs1 (centres unmarked) [I-258] | 80 | 90 | 50 | 80 | 70 | 90 | 10 | 10 | 70 | – | – | – | – | – | – | – | – | – | 100 | 98 | Growth controlling degree (%) Barnyardgrass (barnyardgrass [10]; [20]): 100%; Growth controlling degree (%) Crabgrass (crabgrass [11]; [20]): 100%; Growth controlling degree (%) Green foxtail (green foxtail [12]; [20]): 100%; Growth controlling degree (%) Redroot pigweed (redroot pigweed [13]; [20]): 90%; Growth controlling degree (%) Prickly sida (prickly sida [14]; [20]): 100%; Growth controlling degree (%) Velvetleaf (velvetleaf [15]; [20]): 60%; Growth controlling degree (%) Rice (rice [16]; [20]): 10%; Growth controlling degree (%) Corn (corn [17]; [20]): 0%; Growth controlling degree (%) Soyabean (soybean [18]; [20]): 10%; Growth controlling degree (%) Japanese ribbon wapato (japanese ribbon wapato; active ingredient 250 g/ha): 70%; Growth controlling degree (%) Rice (rice (var. Nihonbare); active ingredient 250 g/ha): 30% |
| CCC(C)C(c1cnccc1C(F)(F)F)N(C)C(=O)Cc1ccccc1 (centres unmarked) [I-260] | 80 | 80 | 50 | 40 | 95 | 90 | 40 | 80 | 90 | – | – | – | – | – | – | – | – | – | 100 | 98 | Growth controlling degree (%) Barnyardgrass (barnyardgrass [10]; [20]): 80%; Growth controlling degree (%) Crabgrass (crabgrass [11]; [20]): 98%; Growth controlling degree (%) Green foxtail (green foxtail [12]; [20]): 100%; Growth controlling degree (%) Redroot pigweed (redroot pigweed [13]; [20]): 70%; Growth controlling degree (%) Prickly sida (prickly sida [14]; [20]): 95%; Growth controlling degree (%) Velvetleaf (velvetleaf [15]; [20]): 70%; Growth controlling degree (%) Rice (rice [16]; [20]): 10%; Growth controlling degree (%) Corn (corn [17]; [20]): 30%; Growth controlling degree (%) Soyabean (soybean [18]; [20]): 20%; Growth controlling degree (%) Japanese ribbon wapato (japanese ribbon wapato; active ingredient 250 g/ha): 60%; Growth controlling degree (%) Rice (rice (var. Nihonbare); active ingredient 250 g/ha): 10% |
